Reference: patent publication US20220119446A1, “BIOMARKERS AND TREATMENT OF NEURONAL INJURY AND NEURODEGENERATION” (Board of Supervisons of Louisiana State University and …, priority 2018, published 2022)
Entries after “also recorded” stand apart in the source; their conditions may differ.

Tests used:
Type in all cases: cell-based, human
[1] = tested on: Wnt5a/FZD5; assay: Immunocytochemistry of Wnt5a/FZD5 colocalization and vesicles in hpRPE cells; details: for number of Wnt5a/FZD5 colocalized vesicles per field: hpRPE, UOS 1600 μM H2O2, 2 hours, +/− 50 ng/ml Wnt5a, no Pitstop2
Procedure: To ascertain localization and interaction between FZD5 and Wnt5a we incubated hpRPE undergoing UOS with Wnt5a+/−NPD1 or other lipid mediators.
(§1) Immunostaining can be performed in 8-well slide chambers and the Hoechst staining in 24-well plates. […] Briefly, cells can be fixed using 4% paraformaldehyde in PBS 1× for 20 min at room temperature or overnight at 4° C. After three washes with PBS, cells can be permeabilized using 0.1% Triton™ X-100 for five minutes and blocked using 10% normal serum and 1% BSA for one hour. […] Hoechst staining can be performed using same protocol of fixation. In one embodiment, permeabilization is done using methanol for 20 min at room temperature. […] Dying cells can be identified by size (0 to 50 pixels), intensity threshold, and circularity. The ratio of hyperpyknotic cells over the total can be calculated for nine randomly chosen fields per sample obtained from three independent wells per experiment. Each experiment can be repeated at least three times to confirm the findings.
In an embodiment involving early stages of apoptosis, the total number of cells per field is assessed and counted to ensure unbiased observations. […] Settings can be adjusted in the conditions that show higher intensity and can be used throughout the remaining samples. In an embodiment, Pearson's colocalization coefficient (PCC) is obtained using FV1200 analysis software for every field in each experiment, and the mean and SEM are depicted in FIGS. 7-11.
Immunostaining was performed in 8-well slide chambers and the Hoechst staining in 24 well plates. […] Briefly, cells were fixed using 4% paraformaldehyde in PBS 1× for 20 min at room temperature or overnight at 4° C. After three washes with PBS, cells were permeabilized using 0.1% Triton™ X-100 for five minutes and blocked using 10% normal serum and 1% BSA for one hour. […] Hoechst staining was performed using same protocol of fixation, but permeabilization was done using methanol for 20 min at room temperature. […] Dying cells were identified by size (0 to 50 pixels), intensity threshold and circularity. The ratio of hyperpyknotic cells over the total was calculated for nine randomly chosen fields per sample obtained from three independent wells per experiment. Each experiment was repeated at least three times to confirm the findings. In the experiments involving early stages of apoptosis, we assessed the total number of cells per field and counted them to ensure unbiased observations. […] Pearson's colocalization coefficient (PCC) was obtained using FV1200 analysis software for every field in each experiment, and the mean and SEM are depicted in Figures S1-S5. […] IMARIS software analysis was performed building a colocalization channel using the Costes thresholding, and the colocalized elements were analyzed using the spots function using the settings different spots sites, background subtraction and local contrast. The output obtained consisted on a collection of sizes (one per element in each picture) or the mean of the intensity in each spot.

[2] = tested on: ARPE-19 cells and hpRPE; assay: Apoptosis by Hoechst staining in RPE cells under UOS
Procedure: ARPE-19 cells, can be plated and grown in DMEM/F-12 containing 10% FBS and 1× penicillin/streptomycin at 37° C., 5% CO2, 99% relative humidity for 24 h. […] 15-LOX-1 deficient cells can be maintained in the same medium as ARPE-19 with the addition of 500 μg/mL Geneticin (Life Technologies Corporation, Carlsbad, Calif.). Transfection can be performed in all cases using Lipofectamine 2000 (Life Technologies Corporation, Carlsbad, Calif.) following the manufacturer's recommendations. […] Experiments with transfection efficiency that yielded less than 80% can be discarded. For siRNA, we used 6 μl of Lipofectamine 2000 per 50 pmol of siRNA per mL of incubation medium, and, for plasmids, we used 6 μl of Lipofectamine 2000 per 2 μg of plasmid per mL of incubation medium. Cells can be incubated for 5 hours at 37° C., 5% CO2 and 99% relative humidity. […] When siRNA/plasmid co-transfection is required, siRNA and plasmid-carrying transfection mixes can be prepared separately and added one after the other in the same well. Oxidative stress treatments can be performed using 600 (ARPE-19) or 1600 (hRPE) μM H2O2, along with 10 ng/mL TNFα, for the required time indicated in each experiment. The treatment we used employed the low serum (0.5% serum) without hFGF. Treatment to induce uncompensated oxidative stress (UOS) can be performed after 8 hours of low-serum medium incubation unless specifically noted. Wnt5a, Wnt3a or NPD1 can be added immediately before induction of UOS. In the secretion experiments, Pitstop 2 can be added to the medium 2 hours before harvesting.
as §1
ARPE-19 cells, were plated and grown in DMEM/F-12 containing 10% FBS and 1× penicillin/streptomycin at 37° C., 5% CO2, 99% relative humidity for 24 h. […] 15-LOX-1 deficient cells were maintained in the same medium as ARPE-19 with the addition of 500 μg/mL Geneticin (Life Technologies Corporation). Transfection was performed in all cases using Lipofectamine 2000 (Life Technologies Corporation) following the manufacturer's recommendations. […] Experiments with transfection efficiency that yielded less than 80% were discarded. For siRNA, we used 6 μl of Lipofectamine 2000 per 50 pmol of siRNA per mL of incubation medium, and, for plasmids, we used 6 μl of Lipofectamine 2000 per 2 μg of plasmid per mL of incubation medium. Cells were incubated for 5 hours at 37° C., 5% CO2 and 99% relative humidity. […] When siRNA/plasmid co-transfection was required, siRNA and plasmid-carrying transfection mixes were prepared separately and added one after the other in the same well. […] The treatment we used employed the low serum (0.5% serum) without hFGF. Treatment to induce uncompensated oxidative stress (UOS) was performed after 8 hours of low-serum medium incubation unless specifically noted. Wnt5a, Wnt3a or NPD1 was added immediately before induction of UOS.

[3] = tested on: NF-κB/p65; assay: NF-κB/p65 luciferase reporter assay in hpRPE cells; details: hpRPE under UOS in the presence of Wnt5a 50 ng/ml; NPD1 100 or 200 nM; Pitstop2 25 μM
Procedure: We asked if Wnt5a activates inflammatory signaling to enhance apoptosis mediated by UOS by assessing COX-2 promoter activation (FIG. 10). […] To compare Wnt5a effects with other cytokines that enhance COX-2 expression, Interleukin-1β (IL-1β) activity was measured. […] To determine if Wnt5a activates NF-κB, hpRPE were transfected with a construct that encompassed three p65 high-affinity binding sites in tandem, driving the expression of the luciferase reporter gene (FIG. 1G). […] To assess whether or not FDZ5 and ROR2 were involved in NF-κB activation by Wnt5a, cells were co-transfected with siRNAs targeting the two receptors (FIG. 11).
(§2) Except TOP/FOP flash, the Luciferase activity can be standardized using a construct expressing GFP constitutively under CMV virus promoter. To assess luciferase activity, cell lysates can be obtained using Passive Lysis Buffer (Promega, Madison, Wis.) and mixed with a luciferase assay reagent (Promegam Madison, Wis.). Chemiluminescence produced by luciferase and fluorescence from GFP can be detected using Appliscan 2.3. Data can be analyzed using SkanIt 2.3 (Thermo Fisher Scientific, Waltham, Mass.).
Except TOP/FOP flash, the Luciferase activity was standardized using a construct expressing GFP constitutively under CMV virus promoter. To assess luciferase activity, cell lysates were obtained using Passive Lysis Buffer (Promega) and mixed with a luciferase assay reagent (Promega). Chemiluminescence produced by luciferase and fluorescence from GFP was detected using Appliscan 2.3. Data were analyzed using SkanIt 2.3 (Thermo Fisher Scientific).

[4] = tested on: Wnt5a; assay: Western blot of secreted (sWnt5a) and cellular (cWnt5a) Wnt5a in RPE cells under UOS
Procedure: To monitor transcription, translation, and secretion of Wnt5a, we performed western blot assays using cellular lysates and medium from hpRPE undergoing UOS+/−NPD1 at different time points. Medium was precipitated using Methanol/Chloroform to bring down all secreted Wnt5a.
The pellet can be re-suspended and denatured in 100 μl of 2× Laemmli sample buffer (Bio-Rad Laboratories, Hercules, Calif.) at 95° C. for 5 min. MCAo brain tissue and cell samples can be homogenized using RIPA (Thermo Fisher Scientific, Waltham, Mass.) buffer supplemented with protease and phosphatase inhibitor cocktails (Millipore Sigma, Burlington, Mass.). In embodiments, the amount of 30 μg of total protein is loaded in NuPAGE® Novex® 4-12% Bis-Tris precast gels (Life Technologies Corporation, Carlsbad, Calif.) and run at constant 120V for about 1 hour and 20 min. Proteins can be transferred to μm Nitrocellulose membrane using Bio-Rad Trans-Blot® Turbo™ System (Bio-Rad Laboratories, Hercules, Calif.). ECL™ Plex Fluorescent Rainbow Markers (GE Healthcare, Chicago, Ill.) can be used as the ladder for protein's molecular weight. Membranes can be blocked using 5% non-fat dry milk (Bio-Rad Laboratories, Hercules, Calif.) in TBS with 1% Tween® 20 (TBST-10×) (Croda International, Snaith, United Kingdom) for 1 hour and incubated overnight with primary antibodies. Anti-mouse or anti-rabbit secondary antibodies conjugated with Cy3 or Cy5 can be used to visualize the protein of interest. Immunoblots can be documented using LAS 4000 imaging system (GE Healthcare Life Sciences, Marlborough, Mass.). A time course exposition can be produced in each case to prevent quantification of saturated images. In embodiments, densitometry data are obtained using ImageQuant™ TL software (GE Healthcare Life Sciences, Marlborough, Mass.).
The pellet was re-suspended and denatured in 100 μl of 2× Laemmli sample buffer (Bio-Rad Laboratories) at 95° C. for 5 min. MCAo brain tissue and cell samples were homogenized using RIPA (Thermo Fisher Scientific) buffer supplemented with protease and phosphatase inhibitor cocktails (Sigma). The amount of 30 μg of total protein was loaded in NuPAGE® Novex® 4-12% Bis-Tris precast gels (Life Technologies Corporation) or Mini-PROTEAN TGX Stain free gels 4-15% and ran at constant 120V for 1 hour and 20 min or 250 V for 40 min respectively. Proteins were transferred to μm Nitrocellulose or LF-PVDF membrane using Bio-Rad Trans-Blot® Turbo™ System (Bio-Rad Laboratories). ECL™ Plex Fluorescent Rainbow Markers (GE Healthcare) were used as the ladder for protein's molecular weight. […] A time course exposition was produced in each case to prevent quantification of saturated images. […]

[5] = tested on: COX-2 promoter; assay: COX-2 promoter luciferase reporter assay; details: ARPE-19 cells; 50 ng/ml Wnt5a or 20 ng/ml IL1-β
Excerpt: as §2
A, Design of luciferase reporter assay performed with COX-2 promoter construct. UOS was induced by the addition of 10 ng/ml TNFα and 600 μM H2O2 in ARPE-19 cells. The concentrations of Wnt5a used was 50 ng/ml. Cells were co-transfected with the constructs driving the expression of luciferase and a plasmid that constitutively expressed green fluorescent protein for standardization. Luciferase activity is denoted in luciferase activity units (LUC) and standardized using GFP fluorescent (GFP). B, Wnt5a and IL-1β effect time course on COX-2 promoter activity. […] Luciferase activity (LUC) was measured in ARPE-19 cells in the presence of 50 ng/ml Wnt5a or 20 ng/ml IL1-β. […] Luciferase activity measured in cells incubated with 50 ng/ml Wnt5a in the presence or absence of 100 nM (+) and 200 nM (++) NPD1.

Q: Which results are given for `CCC=CCC(O)C=CC=CC=CC(O)CC=CCC=CCCC(=O)O` (centres unmarked) [10R, 17R diHDHA]?
A: number of Wnt5a/FZD5 colocalized vesicles per field [1]: decreased the amount of vesicles per field; number of Wnt5a/FZD5 colocalized vesicles per field ([1]; listed as NPD1 stereoisomer, of 10-R, 17R configuration): showed the same effect as NPD1; UOS-dependent NFkB activation and apoptosis (FIG. 18B legend) [2]: counteracted these effects

Q: For `CC/C=C\C/C=C\C[C@H](O)\C=C/C=C/C=C/[C@H](O)C/C=C\CCC(=O)O` [Maresin-1], which “UOS-dependent NFkB activation and apoptosis (FIG. 18B legend)” value [2] is on record?
A: counteracted these effects

Q: What does the source list for `O=C1NC(=NS(=O)(=O)c2cccc3ccccc23)S/C1=C\c1ccc(Br)cc1` [Pitstop2]?
A: number of Wnt5a/FZD5 co-localized vesicles in the presence of Pitstop2 ([1]; 25 μM Pitstop2, control and UOS treated cells, rWnt5a added): prevented the increased in Wnt5a/FZD5 co-localized vesicles; also recorded: inhibition produced by Box5 was reverted; NF-κB/p65 activation (luciferase) [3]: decreases the activation of p65/NF-κB; also recorded: interferes with the activation of NF-κB/p65; also recorded: decreases the activation of p65/NFkB; also recorded: interferes with the activation of NFkB/p65; cellular Wnt5a (cWnt5a) abundance ([4]; cells undergoing UOS+/−NPD1 and Pitstop2): did not modify cWnt5a abundance; secreted Wnt5a (sWnt5a) in medium ([4]; hpRPE cells under UOS, Pitstop2 added 2 hours before harvesting): reverted the effect of NPD1 on sWnt5a; also recorded: increase in secreted Wnt5a; also recorded: increase in sWnt5a

Q: For `CC/C=C\C[C@H](O)/C=C/C=C\C=C\C=C\[C@@H](O)[C@@H](O)C/C=C\CCC(=O)O` [RvD1, 7S,8R,17S-trihydroxy-DHA], which “UOS-dependent NFkB activation and apoptosis (FIG. 18B legend)” value [2] is on record?
A: counteracted these effects

Q: How did the “UOS-dependent NFkB activation and apoptosis (FIG. 18B legend)” value [2] turn out when `CC/C=C\C[C@H](O)[C@H](O)/C=C/C=C/C=C\C=C\[C@@H](O)C/C=C\CCC(=O)O` [RvD2, 7S,16R,17S-trihydroxy-DHA] was run?
A: counteracted these effects

Q: “IL-1 β: cytokine that enhances COX-2 expression, used for comparison with Wnt5a” was tested. Which “COX-2 promoter activation (luciferase)” value [5] did it give?
A: growing staggered pattern of COX-2 promoter activation through at least 16 hours
